From PMC12648010 (Acta Pharmaceutica Sinica. B, 2025) come the findings set out here.

Molecules are shown by their SMILES.

The assay concerns the target T1, SLC38A9 (Homo sapiens, UniProt Q8NBW4).
T1 sequence (Q8NBW4 1-561): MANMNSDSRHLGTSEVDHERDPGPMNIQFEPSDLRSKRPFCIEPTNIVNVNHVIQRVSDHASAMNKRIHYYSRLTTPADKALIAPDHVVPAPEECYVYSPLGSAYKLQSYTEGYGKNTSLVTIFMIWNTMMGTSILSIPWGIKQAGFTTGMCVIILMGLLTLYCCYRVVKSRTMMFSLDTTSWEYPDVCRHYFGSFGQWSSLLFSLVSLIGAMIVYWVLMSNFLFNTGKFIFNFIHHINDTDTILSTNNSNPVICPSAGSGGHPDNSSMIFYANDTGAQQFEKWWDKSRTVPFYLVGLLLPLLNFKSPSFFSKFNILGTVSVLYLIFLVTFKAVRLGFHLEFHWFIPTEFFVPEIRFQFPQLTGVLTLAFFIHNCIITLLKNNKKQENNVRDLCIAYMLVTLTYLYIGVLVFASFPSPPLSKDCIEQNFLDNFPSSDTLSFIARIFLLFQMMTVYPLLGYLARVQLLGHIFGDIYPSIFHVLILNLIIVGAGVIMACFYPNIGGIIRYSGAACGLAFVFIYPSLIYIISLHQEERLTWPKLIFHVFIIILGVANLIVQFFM
The assay is described as follows: SPR. In kind it is binding.

The Kd is the constant that tells how readily two partners part at equilibrium. Read a high Kd as weaker binding.

Compound `C=CC(=O)Nc1cccc2[nH]nc(-c3nc4ccc(N5CCN(C)CC5)cc4[nH]3)c12` [LLAD, N-(3-(6-(4-Methylpiperazin-1-yl) -1H-benzo[d]imidazole-2-yl)-1H-indazol-4-yl) acrylamide] yielded a Kd of 1290 nM. This lies in the single-digit micromolar range.
